In patent US20260285816A1, “Piperazinyl-Modified Quinazolinyl-Aryl Urea Derivative, And Preparation Method And Use Thereof” (Guangxi Normal University, priority 2025, published 2026):

What was measured:
Format in all cases: cell-based, human
T24 cells = experiment: CCK-8 anti-proliferative assay, T24; conditions: Homo sapiens, T-24; Table 6; co-incubated 48 h; read-out: Anti-proliferative activity (IC50 ± standard deviation) T24
Outline: (§1)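 Human tumour cells were seeded at 5,000 per well and grown to 70% confluence. They were then treated in triplicate with compound at 1–30 μM (final) for the designated time. Viability was read by CCK-8 absorbance at 450 nm after 1–4 h, and IC50 was derived from % inhibition versus control.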

MG-63 cells = experiment: CCK-8 anti-proliferative assay, MG-63; conditions: Homo sapiens, MG-63; Table 7; co-incubated 48 h; read-out: Anti-proliferative activity (IC50 ± standard deviation) MG-63
From the text: (§2) The obtained quinazolinyl-aryl urea derivatives were screened for compounds with optimal activity using the following method. All cell lines employed in this experiment were of human origin, including: bladder cancer cells: J82, UM-UC-3, T24, 5637, pancreatic cancer cells: BxPC-3, PANC-1, osteosarcoma cells: 143B, MG-63, cervical cancer cells: HeLa, breast cancer cells: MCF-7, NSCLC cells: A549, hepatoblastoma cells: Hep G2, and ovarian cancer cells: SK-OV-3, as well as normal cell lines: immortalized ureteral epithelial cells (SV-HUC-1), embryonic lung fibroblasts (WI-38).
(§3) Experimental Procedure for Anti-Proliferative Activity Evaluation: The CCK-8 assay was employed. Cells in logarithmic growth phase were harvested, adjusted to appropriate density, and uniformly seeded into 96-well plates using a multichannel pipette (180 μL cell suspension containing complete medium per well, 5,000 cells/well). Blank control wells (containing basal medium, CCK-8 solution, and DMSO only) were set. Cells were incubated at 37° C. under 5% CO2. After 70% confluency was reached, test compounds (target compounds/positive controls) were added at final concentrations of 1, 2, 4, 6, 8, 12, 16, 24, and 30 μM (3 repeated wells per concentration). Compounds were pre-dissolved in DMSO, sterilized, and diluted with medium before adding 20 μL/well. After co-incubation for designated durations, 10 μL CCK-8 solution was added per well followed by 1-4 h incubation (different cells have different incubation times). The reaction was terminated, and OD (optical density) values at 450 nm were measured using a microplate reader. Inhibition rates were calculated as: (ODcontrol−ODtreatment)/ODcontrol×100%. Median inhibitory concentrations (IC50 values) were derived using Origin v8.0 software.

PANC-1 cells = experiment: CCK-8 anti-proliferative assay, PANC-1; conditions: Homo sapiens, PANC-1; Table 7; co-incubated 48 h; read-out: Anti-proliferative activity (IC50 ± standard deviation) PANC-1
Outline: as §1

HeLa cells = experiment: CCK-8 anti-proliferative assay, HeLa; conditions: Homo sapiens, HeLa; Table 8; co-incubated 48 h; read-out: Anti-proliferative activity (IC50 ± standard deviation) HeLa
Experimental: (§4) The obtained quinazolinyl-aryl urea derivatives were screened for compounds with optimal activity using the following method.
as §3, with “The reaction was terminated, and OD (optical density) values at 450 nm were measured using a microplate reader.” left out

UM-UC-3 cells = experiment: CCK-8 anti-proliferative assay, UM-UC-3; conditions: Homo sapiens, UMUC3; Table 6; co-incubated 48 h; read-out: Anti-proliferative activity (IC50 ± standard deviation) UM-UC-3
Experimental: as §4
as §3, with “The reaction was terminated, and OD (optical density) values at 450 nm were measured using a microplate reader.” left out

143B cells = experiment: CCK-8 anti-proliferative assay, 143B; conditions: Homo sapiens, 143B; Table 7; co-incubated 48 h; read-out: Anti-proliferative activity (IC50 ± standard deviation) 143B
From the text: as §2, §3

BxPC-3 cells = experiment: CCK-8 anti-proliferative assay, BxPC-3; conditions: Homo sapiens, BXPC-3; Table 7; co-incubated 48 h; read-out: Anti-proliferative activity (IC50 ± standard deviation) BxPC-3
Outline: as §1

5637 cells = experiment: CCK-8 anti-proliferative assay, 5637; conditions: Homo sapiens; Table 6; co-incubated 48 h; read-out: Anti-proliferative activity (IC50 ± standard deviation) 5637
Outline: (§5)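 Cells seeded at 5,000/well, grown at 37° C, 5% CO2 to 70% confluence, then treated in triplicate with 1-30 μM compound (nine concentrations) for designated times.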

A549 cells = experiment: CCK-8 anti-proliferative assay, A549; conditions: Homo sapiens, A549; Table 8; co-incubated 48 h; read-out: Anti-proliferative activity (IC50 ± standard deviation) A549
Outline: as §5

Hep G2 cells = experiment: CCK-8 anti-proliferative assay, Hep G2; conditions: Homo sapiens, HepG2; Table 8; co-incubated 48 h; read-out: Anti-proliferative activity (IC50 ± standard deviation) Hep G2
Outline: as §1

[1] = test system: immortalized ureteral epithelial cells (SV-HUC-1); experiment: CCK-8 anti-proliferative assay, normal cells SV-HUC-1; conditions: Homo sapiens, SV-HUC1; Table 9; normal cells; co-incubated 48 h; read-out: Anti-proliferative activity (IC50 ± standard deviation) SV-HUC-1
Experimental: as §4
as §3, with “The reaction was terminated, and OD (optical density) values at 450 nm were measured using a microplate reader.” left out

J82 cells = experiment: CCK-8 anti-proliferative assay, J82; conditions: Homo sapiens, J82; Table 6; co-incubated 48 h; read-out: Anti-proliferative activity (IC50 ± standard deviation) J82
Experimental: as §4
as §3, with “The reaction was terminated, and OD (optical density) values at 450 nm were measured using a microplate reader.” left out

[2] = test system: embryonic lung fibroblasts (WI-38); experiment: CCK-8 anti-proliferative assay, normal cells WI-38; conditions: Homo sapiens, WI-38, Table 9, co-incubated 48 h, read-out: Anti-proliferative activity (IC50 ± standard deviation) WI-38
From the text: as §2, §3

SK-OV-3 cells = experiment: CCK-8 anti-proliferative assay, SK-OV-3; conditions: Homo sapiens, SK-OV-3; Table 9; co-incubated 48 h; read-out: Anti-proliferative activity (IC50 ± standard deviation) SK-OV-3
Experimental: as §4
as §3, with “The reaction was terminated, and OD (optical density) values at 450 nm were measured using a microplate reader.” left out

MCF-7 cells = experiment: CCK-8 anti-proliferative assay, MCF-7; conditions: Homo sapiens, MCF7; Table 8; co-incubated 48 h; read-out: Anti-proliferative activity (IC50 ± standard deviation) MCF-7
Outline: as §5

IC50 (T24 cells) [µM]	IC50 (PANC-1 cells) [µM]	IC50 (HeLa cells) [µM]	IC50 (BxPC-3 cells) [µM]	IC50 (A549 cells) [µM]	IC50 (SK-OV-3 cells) [µM]	IC50 (MCF-7 cells) [µM]	Structure (SMILES)	IC50 (MG-63 cells) [µM]	IC50 (UM-UC-3 cells) [µM]	IC50 (143B cells) [µM]	IC50 (5637 cells) [µM]	IC50 (Hep G2 cells) [µM]	IC50 [1] [µM]	IC50 (J82 cells) [µM]	IC50 [2] [µM]
6.83 ± 0.87	19.5 ± 1.53	6.32 ± 0.37	7.78 ± 0.53	10.9 ± 0.67	8.76 ± 0.74	6.64 ± 0.52	COc1cc2ncnc(NCc3cccc(NC(=O)Nc4ccc(F)c(C(F)(F)F)c4)c3)c2cc1OCCCCCCN1CCN(CCN2CCOCC2)CC1 [Compound 8-1q]	5.81 ± 0.63	6.25 ± 0.88	4.57 ± 0.44	5.78 ± 0.69	7.09 ± 0.35	7.61 ± 0.41	4.26 ± 0.31	7.97 ± 0.63
3.91 ± 0.34	11.9 ± 0.94	5.76 ± 0.57	7.39 ± 0.62	8.62 ± 0.55	8.51 ± 0.87	4.12 ± 0.15	COc1cc2ncnc(NCc3cccc(NC(=O)Nc4ccc(Cl)c(C(F)(F)F)c4)c3)c2cc1OCCCCCCN1CCN(CCN2CCOCC2)CC1 [Compound 8-1r]	5.31 ± 0.46	6.14 ± 0.53	5.41 ± 0.39	3.59 ± 0.16	5.59 ± 0.45	7.02 ± 0.53	6.33 ± 0.61	7.89 ± 0.66
6.95 ± 0.51	12.7 ± 0.71	6.81 ± 0.45	7.31 ± 0.76	12.6 ± 0.48	7.29 ± 0.66	10.3 ± 0.68	COc1cc2ncnc(NCc3cccc(NC(=O)Nc4cc(C(F)(F)F)cc(C(F)(F)F)c4)c3)c2cc1OCCCCCCN1CCN(CCN2CCOCC2)CC1 [Compound 8-1s, N-(3-(((7-methoxy-6-((6-(4-(2-morpholinoethyl)piperazin-1-yl)hexyl)oxy)quinazolin-4-yl)amino)methyl)phenyl)-N′-(3,5-bis(trifluoromethyl)phenyl)urea]	7.17 ± 0.52	6.72 ± 0.53	4.95 ± 0.69	5.93 ± 0.44	4.55 ± 0.47	7.31 ± 0.35	5.63 ± 0.54	7.71 ± 0.54
15.8 ± 0.89	> 30	> 30	16.8 ± 1.25	16.5 ± 0.77	> 30	> 30	COc1cc2ncnc(NCc3cccc(NC(=O)NC4CCCCC4)c3)c2cc1OCCCCCCN1CCN(CCN2CCOCC2)CC1 [Compound 8-1v, N-(3-(((7-Methoxy-6-((6-(4-(2-morpholinoethyl)piperazin-1-yl)hexyl)oxy)quinazolin-4-yl)amino)methyl)phenyl)-N′-cyclohexylurea]	15.6 ± 0.92	19 ± 0.34	22.4 ± 1.63	11.2 ± 0.97	10.6 ± 0.94	> 30	13.9 ± 0.95	15.4 ± 0.88
